The results in this text go back to patent US10131653B2, “Heterocyclic compound” (TAKEDA PHARMACEUTICAL COMPANY LIMITED, priority 2015, dated 2018).

Experiment [1] concerns the target T1, human OX1 receptor (Homo sapiens, UniProt O43613).
T1 construct: expressed in transfected cells; host or cells: CHO cells
T1 sequence (O43613 1-425): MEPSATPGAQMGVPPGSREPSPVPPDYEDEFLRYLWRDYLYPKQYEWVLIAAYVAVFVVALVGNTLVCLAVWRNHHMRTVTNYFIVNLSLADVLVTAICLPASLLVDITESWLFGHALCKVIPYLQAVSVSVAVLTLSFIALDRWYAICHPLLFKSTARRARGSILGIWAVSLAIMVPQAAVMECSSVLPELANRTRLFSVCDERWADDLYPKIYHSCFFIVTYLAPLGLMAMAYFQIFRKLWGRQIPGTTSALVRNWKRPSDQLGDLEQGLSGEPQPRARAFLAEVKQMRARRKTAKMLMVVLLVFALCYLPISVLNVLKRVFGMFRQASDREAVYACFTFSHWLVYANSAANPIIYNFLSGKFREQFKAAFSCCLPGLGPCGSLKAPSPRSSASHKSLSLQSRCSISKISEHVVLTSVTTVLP
Description: Measurement of orexin receptor antagonistic activity (calcium fluorescence, FLIPRtetra). It is filed as cell-based. Conditions: 10 μM test compound, CHO cells expressing human OX1 receptor, OX-A 1 nM; for inhibition at 10 µM: CHO, read-out: Human Orexin1 receptor inhibition (at 10 μM). The procedure: (§1) Measurement of Orexin Receptor Antagonistic Activity
(§2) CHO cells forcibly expressing human OX1 receptor or human OX2 receptor were seeded in each well of 384 well black transparent bottom plate (BD Falcon) at 7,500 cells/well, and cultured for one day in a 5% CO2 incubator at 37° C. […] The plate was stood for 30 min in a 5% CO2 incubator at 37° C., and further stood at room temperature for 30 min. A test compound prepared by diluting with assay buffer B (HBSS, 20 mM HEPES, 0.1% BSA) was added at 10 μL/well, and then OX-A (OX1 receptor, final concentration; 1 nM) or OX-A (OX2 receptor, final concentration; 0.3 nM) was added at 10 μL/well, and the fluorescence value was measured by FLIPRtetra (Molecular Devices) every one sec for 2 min.

Experiment [2] addresses T2, human OX2 receptor (Homo sapiens, UniProt O43614).
T2 construct: expressed in transfected cells; host or cells: CHO cells
T2 sequence (O43614 1-444): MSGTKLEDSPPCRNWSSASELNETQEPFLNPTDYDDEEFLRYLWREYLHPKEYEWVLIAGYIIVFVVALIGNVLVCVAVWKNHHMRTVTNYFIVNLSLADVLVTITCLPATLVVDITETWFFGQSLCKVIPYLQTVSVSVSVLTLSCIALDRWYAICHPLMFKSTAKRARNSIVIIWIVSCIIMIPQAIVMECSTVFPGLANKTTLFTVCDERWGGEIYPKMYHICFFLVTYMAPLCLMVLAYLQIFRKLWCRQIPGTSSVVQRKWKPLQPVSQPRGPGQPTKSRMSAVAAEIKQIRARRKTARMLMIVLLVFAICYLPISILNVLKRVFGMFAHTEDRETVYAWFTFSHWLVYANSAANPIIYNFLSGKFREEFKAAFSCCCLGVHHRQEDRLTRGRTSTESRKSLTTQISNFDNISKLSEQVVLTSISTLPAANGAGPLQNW
Described as above. The experiment is classed as cell-based. To be noted: 10 μM test compound, CHO cells expressing human OX2 receptor, OX-A 0.3 nM; for inhibition at 10 µM: CHO, read-out: Human Orexin2 receptor inhibition (at 10 μM). The procedure:
as §1, §2

Where a name gives a salt, the structure may show the parent alone.

Turning to `Cc1cc(N2CCN(C(=O)c3cc(Cl)ccc3-n3nccn3)CC(C)O2)nc(C)n1` (stereo in doubt) [Example 212, (5-chloro-2-(2H-1,2,3-triazol-2-yl)phenyl)((7R)-2-(2,6-dimethylpyrimidin-4-yl)-7-methyl-1,2,5-oxadiazepan-5-yl)methanone], in experiment [1], the “Human Orexin1 receptor inhibition (at 10 μM)” value turned out to be 16%. Moreover, the “Human Orexin2 receptor inhibition (at 10 μM)” value in experiment [2] was found to be 99%. As a reminder, the inhibition is the change of the read-out against control, counted positive when it falls. Consider `Cc1nc(N2CCN(C(=O)c3cc(Cl)ccc3-n3nccn3)C[C@H](C)O2)cc(C(F)(F)F)n1` [Example 3, (5-chloro-2-(2H-1,2,3-triazol-2-yl)phenyl)((7S)-7-methyl-2-(2-methyl-6-(trifluoromethyl)pyrimidin-4-yl)-1,2,5-oxadiazepan-5-yl)methanone], for which the values for the inhibition at 10 µM in experiment [1] and in experiment [2] were 87% and 100%, respectively.

As for `Cc1ccc(-n2nccn2)c(C(=O)N2CCON(c3cc(C)nc(C)n3)CC2)c1` [Example 4, (2-(2,6-dimethylpyrimidin-4-yl)-1,2,5-oxadiazepan-5-yl)(5-methyl-2-(2H-1,2,3-triazol-2-yl)phenyl)methanone], the values for the inhibition at 10 µM in experiment [1] and in experiment [2] were 62% and 96%, respectively. The matching figures for `Cc1cc(N2C[C@H](C)N(C(=O)c3ccccc3-c3nccs3)[C@H](C)CO2)nc(C)n1` [Example 5, ((4S,6R)-2-(2,6-dimethylpyrimidin-4-yl)-4,6-dimethyl-1,2,5-oxadiazepan-5-yl)(2-(1,3-thiazol-2-yl)phenyl)methanone]: 101% and 99%. The like results for `Cc1ccc(-n2nccn2)c(C(=O)N2CCN(c3cc(C)nc(C)n3)OC[C@H]2C)c1` [Example 6, ((6R)-2-(2,6-dimethylpyrimidin-4-yl)-6-methyl-1,2,5-oxadiazepan-5-yl)(5-methyl-2-(2H-1,2,3-triazol-2-yl)phenyl)methanone] were, in that order, 88% and 96%.

Regarding `Cc1ccc(-n2nccn2)c(C(=O)N2CCON(c3ncc(C(F)(F)F)cn3)CC2)c1` [Example 9], the inhibition at 10 µM turned out to be 91% in experiment [1] and 74% in experiment [2]. The matching figures for `Cc1ccc(-n2nccn2)c(C(=O)N2CCON(c3ncc(C4CC4)cn3)CC2)c1` [Example 10, (2-(5-cyclopropylpyrimidin-2-yl)-1,2,5-oxadiazepan-5-yl)(5-methyl-2-(2H-1,2,3-triazol-2-yl)phenyl)methanone]: 93% and 94%. The matching figures for `Cc1ccc(-n2nccn2)c(C(=O)N2CCON(c3nc(C)cc(-c4ccc(F)cc4)n3)CC2)c1` [Example 12, (2-(4-(4-fluorophenyl)-6-methylpyrimidin-2-yl)-1,2,5-oxadiazepan-5-yl)(5-methyl-2-(2H-1,2,3-triazol-2-yl)phenyl)methanone]: 101% and 93%. Consider `Cc1cc(N2CCN(C(=O)c3cc(F)ccc3-n3nccn3)CCO2)nc(C)n1` [Example 14, (2-(2,6-dimethylpyrimidin-4-yl)-1,2,5-oxadiazepan-5-yl)(5-fluoro-2-(2H-1,2,3-triazol-2-yl)phenyl)methanone], for which the results for the inhibition at 10 µM in experiment [1] and in experiment [2] were 23% and 91%, respectively.

In the case of `Cc1cc(N2CCN(C(=O)c3cc(F)c(F)cc3-n3nccn3)CCO2)nc(C)n1` [Example 15, (4,5-difluoro-2-(2H-1,2,3-triazol-2-yl)phenyl) (2-(2,6-dimethylpyrimidin-4-yl)-1,2,5-oxadiazepan-5-yl)methanone], the inhibition at 10 µM in experiment [1] came out at 5%; in experiment [2], 102%. Turning to `Cc1cc(N2CCN(C(=O)c3c(F)cccc3-n3nccn3)CCO2)nc(C)n1` [Example 16, (2-(2,6-dimethylpyrimidin-4-yl)-1,2,5-oxadiazepan-5-yl) (2-fluoro-6-(2H-1,2,3-triazol-2-yl)phenyl)methanone hydrochloride], the inhibition at 10 µM came to 21% in experiment [1] and 98% in experiment [2].

Consider `Cc1cc(N2CCN(C(=O)c3ccccc3-c3ncc(F)s3)CCO2)nc(C)n1` [Example 17, (2-(2,6-dimethylpyrimidin-4-yl)-1,2,5-oxadiazepan-5-yl) (2-(5-fluoro-1,3-thiazol-2-yl)phenyl)methanone], for which the results for the inhibition at 10 µM in experiment [1] and in experiment [2] were 41% and 102%, respectively. In the case of `Cc1cc(N2CCN(C(=O)c3ccccc3-c3csc(C)n3)CCO2)nc(C)n1` [Example 19, (2-(2,6-dimethylpyrimidin-4-yl)-1,2,5-oxadiazepan-5-yl) (2-(2-methyl-1,3-thiazol-4-yl)phenyl)methanone], the inhibition at 10 µM in experiment [1] came to 36%; in experiment [2] it was 100%.

For the compound `Cc1cc(N2CCN(C(=O)c3ccccc3-n3nccn3)CCO2)nc(C)n1` [Example 20, (2-(2,6-dimethylpyrimidin-4-yl)-1,2,5-oxadiazepan-5-yl) (2-(2H-1,2,3-triazol-2-yl)phenyl)methanone], the results for the inhibition at 10 µM in experiment [1] and in experiment [2] were 25% and 101%, respectively. The matching figures for `Cc1cc(N2CCN(C(=O)c3ccccc3C3CCC3)CCO2)nc(C)n1` [Example 21, (2-cyclobutylphenyl) (2-(2,6-dimethylpyrimidin-4-yl)-1,2,5-oxadiazepan-5-yl)methanone]: 19% and 99%.

On to `Cc1cc(N2CCN(C(=O)c3cc(Cl)ccc3C3CCC3)CCO2)nc(C)n1` [Example 22, (5-chloro-2-cyclobutylphenyl) (2-(2,6-dimethylpyrimidin-4-yl)-1,2,5-oxadiazepan-5-yl)methanone], for which the inhibition at 10 µM in experiment [1] was 54%; in experiment [2], 99%. The like results for `Cc1cc(N2CCN(C(=O)c3ccccc3-c3cccs3)CCO2)nc(C)n1` [Example 23, (2-(2,6-dimethylpyrimidin-4-yl)-1,2,5-oxadiazepan-5-yl) (2-(2-thienyl)phenyl)methanone hydrochloride] were, in that order, 88% and 101%.

On to `Cc1cc(N2CCN(C(=O)c3ccccc3-c3nc(C)no3)CCO2)nc(C)n1` [Example 24, (2-(2,6-dimethyl-pyrimidin-4-yl)-1,2,5-oxadiazepan-5-yl) (2-(3-methyl-1,2,4-oxadiazol-5-yl)phenyl) methanone], for which the inhibition at 10 µM amounted to 13% in experiment [1] and 99% in experiment [2]. The matching figures for `Cc1cc(N2CCN(C(=O)c3cc(Cl)ccc3-n3nccn3)CCO2)nc(C)n1` [Example 25, (5-chloro-2-(2H-1,2,3-triazol-2-yl)phenyl) (2-(2,6-dimethyl-pyrimidin-4-yl)-1,2,5-oxadiazepan-5-yl)methanone]: 61% and 98%. The matching figures for `Cc1cc(N2CCN(C(=O)c3cc(Br)ccc3-n3nccn3)CCO2)nc(C)n1` [Example 26, (5-bromo-2-(2H-1,2,3-triazol-2-yl)phenyl) (2-(2,6-dimethyl-pyrimidin-4-yl)-1,2,5-oxadiazepan-5-yl)methanone]: 83% and 100%. The like results for `Cc1cc(N2CCN(C(=O)c3cc(F)ccc3-c3ncccn3)CCO2)nc(C)n1` [Example 27, (2-(2,6-dimethyl-pyrimidin-4-yl)-1,2,5-oxadiazepan-5-yl) (5-fluoro-2-(pyrimidin-2-yl)phenyl) methanone] were, in that order, 45% and 102%. As for `Cc1cc(N2CCN(C(=O)c3cc(F)ccc3-n3cccn3)CCO2)nc(C)n1` [Example 28, (2-(2,6-dimethyl-pyrimidin-4-yl)-1,2,5-oxadiazepan-5-yl) (5-fluoro-2-(1H-pyrazol-1-yl)phenyl) methanone], the inhibition at 10 µM in experiment [1] is 23%; in experiment [2], 74%. `Cc1cc(C)nc(N2CCN(C(=O)c3ccc(Cl)cc3)CCO2)n1` [Example 40, (4-chlorophenyl)(2-(4,6-dimethylpyrimidin-2-yl)-1,2,5-oxadiazepan-5-yl)methanone]: the inhibition at 10 µM in experiment [2] stood at 4%.
